In patent US10556888B2, “Pyrazole compounds or salts thereof, preparation methods therefor, herbicidal compositions and use thereof” (QINGDAO KINGAGROOT CHEMICAL COMPOUNDS CO., LTD, priority 2015, dated 2020):

Tests used:
[1] = tested on: Monocotyledonous and dicotyledonous weed; experiment: Post-emergence test experiment, weed control effect (Table 2); type: in vivo; set-up: key to weed control effect, Setaria viridis (level) / weed control effect, Rorippa indica (level) / weed control effect, Abutilon theophrasti (level) / weed control effect, Echinochloa crus-galli (level) / weed control effect, Digitaria sanguinalis (level): Level 10: completely dead; Level 9: above 90% growth inhibition rate; Level 8: above 80% growth inhibition rate; Level 7: above 70% growth inhibition rate; Level 6: above 60% growth inhibition rate; Level 5: above 50% growth inhibition rate; Level 4: above 30% growth inhibition rate; Level 3: above 20% growth inhibition rate; Level 2: above 10% growth inhibition rate; Level 1: above 1-10% growth inhibition rate; Level 0: no effect; settings: 3 weeks after spraying, greenhouse
Outline: (§1)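 Weed and crop seeds (wheat, corn, rice, soybean, cotton, oilseed, millet, sorghum) grown in soil in greenhouse; sprayed at 2-3 leaf stage, 2-3 weeks after sowing, with compound in acetone/Tween 80/water. Effects assessed after 3 weeks further greenhouse culture.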

[2] = tested on: main crop (wheat, corn, rice, soybean, cotton, oilseed, millet and sorghum); experiment: Post-emergence test experiment, main crops (Table 2); type: in vivo; set-up: key: Level 10: completely dead; Level 9: above 90% growth inhibition rate; Level 8: above 80% growth inhibition rate; Level 7: above 70% growth inhibition rate; Level 6: above 60% growth inhibition rate; Level 5: above 50% growth inhibition rate; Level 4: above 30% growth inhibition rate; Level 3: above 20% growth inhibition rate; Level 2: above 10% growth inhibition rate; Level 1: above 1-10% growth inhibition rate; Level 0: no effect; settings: 3 weeks after spraying, greenhouse
Outline: as §1

Compound | weed control effect, Abutilon theophrasti (level) ([1]; 30 g/ha) | weed control effect, Bidens pilosa (level) ([1]; 30 g/ha) | weed control effect, Digitaria sanguinalis (level) ([1]; 30 g/ha) | weed control effect, Echinochloa crus-galli (level) ([1]; 30 g/ha) | weed control effect, Rorippa indica (level) ([1]; 30 g/ha) | weed control effect, Setaria viridis (level) ([1]; 30 g/ha) | effect on crop, corn (level) ([2]; 30 g/ha) | effect on crop, rice (level) ([2]; 30 g/ha) | effect on crop, wheat (level) ([2]; 30 g/ha) | also measured
Cc1nn(C)c(OC(=O)c2cnn(C)c2)c1C(=O)c1ccc(S(C)(=O)=O)c(Cn2cccn2)c1Cl [Compound 16] |  |  |  |  |  |  |  |  |  | weed control effect, Abutilon theophrasti (level) ([1]; 60 g/ha): 10; weed control effect, Bidens pilosa (level) ([1]; 60 g/ha): 8 (Level 8: above 80% growth inhibition rate); weed control effect, Digitaria sanguinalis (level) ([1]; 60 g/ha): 10; weed control effect, Echinochloa crus-galli (level) ([1]; 60 g/ha): 10; weed control effect, Rorippa indica (level) ([1]; 60 g/ha): 10; weed control effect, Setaria viridis (level) ([1]; 60 g/ha): 8 (Level 8: above 80% growth inhibition rate); effect on crop, corn (level) ([2]; 60 g/ha): 0; effect on crop, rice (level) ([2]; 60 g/ha): 1 (Level 1: above 1-10% growth inhibition rate); effect on crop, wheat (level) ([2]; 60 g/ha): 1 (Level 1: above 1-10% growth inhibition rate)
CCOc1c(C(=O)Oc2c(C(=O)c3ccc(S(C)(=O)=O)c(COCC(F)(F)F)c3Cl)cnn2C)cnn1C [Compound 54] | 7 (Level 7: above 70% growth inhibition rate) | 7 (Level 7: above 70% growth inhibition rate) | 7 (Level 7: above 70% growth inhibition rate) | 10 | 10 | 10 | 1 (Level 1: above 1-10% growth inhibition rate) | 3 (Level 3: above 20% growth inhibition rate) | 0 | 
Cn1cc(Cl)c(C(=O)Oc2c(C(=O)c3ccc(S(C)(=O)=O)c(COCC(F)F)c3Cl)cnn2C)n1 [Compound 102] | 7 (Level 7: above 70% growth inhibition rate) | 7 (Level 7: above 70% growth inhibition rate) | 7 (Level 7: above 70% growth inhibition rate) | 10 | 10 | 6 (Level 6: above 60% growth inhibition rate) | 1 (Level 1: above 1-10% growth inhibition rate) | 5 (Level 5: above 50% growth inhibition rate) | 0 | 
Cc1nn(C)c(OC(=O)c2cnn(C)c2)c1C(=O)c1ccc(S(C)(=O)=O)c(COCC(F)F)c1Cl [Compound 64] | 5 (Level 5: above 50% growth inhibition rate) | 5 (Level 5: above 50% growth inhibition rate) | 9 (Level 9: above 90% growth inhibition rate) | 10 | 10 | 10 | 2 (Level 2: above 10% growth inhibition rate) | 3 (Level 3: above 20% growth inhibition rate) | 0 | 
Cc1nn(C)c(OC(=O)c2cnn(C)c2)c1C(=O)c1ccc(S(C)(=O)=O)c(COCC(F)(F)F)c1Cl [Compound 63] | 7 (Level 7: above 70% growth inhibition rate) | 7 (Level 7: above 70% growth inhibition rate) | 10 | 10 | 10 | 10 | 1 (Level 1: above 1-10% growth inhibition rate) | 6 (Level 6: above 60% growth inhibition rate) | 0 | 
CCc1nn(C)c(C(=O)Oc2c(C(=O)c3ccc(S(C)(=O)=O)c(Cn4cccn4)c3Cl)c(C)nn2C(C)C)c1Cl [Compound 106] |  |  |  |  |  |  |  |  |  | weed control effect, Abutilon theophrasti (level) ([1]; 60 g/ha): 10; weed control effect, Bidens pilosa (level) ([1]; 60 g/ha): 8 (Level 8: above 80% growth inhibition rate); weed control effect, Digitaria sanguinalis (level) ([1]; 60 g/ha): 8 (Level 8: above 80% growth inhibition rate); weed control effect, Echinochloa crus-galli (level) ([1]; 60 g/ha): 10; weed control effect, Rorippa indica (level) ([1]; 60 g/ha): 10; weed control effect, Setaria viridis (level) ([1]; 60 g/ha): 10; effect on crop, corn (level) ([2]; 60 g/ha): 0; effect on crop, rice (level) ([2]; 60 g/ha): 1 (Level 1: above 1-10% growth inhibition rate); effect on crop, wheat (level) ([2]; 60 g/ha): 0
Cc1ccn(Cc2c(S(C)(=O)=O)ccc(C(=O)c3c(C)nn(C)c3OC(=O)c3cnn(C)c3)c2Cl)n1 [Compound 15] |  |  |  |  |  |  |  |  |  | weed control effect, Abutilon theophrasti (level) ([1]; 120 g/ha): 9 (Level 9: above 90% growth inhibition rate); weed control effect, Bidens pilosa (level) ([1]; 120 g/ha): 8 (Level 8: above 80% growth inhibition rate); weed control effect, Digitaria sanguinalis (level) ([1]; 120 g/ha): 4 (Level 4: above 30% growth inhibition rate); weed control effect, Echinochloa crus-galli (level) ([1]; 120 g/ha): 10; weed control effect, Rorippa indica (level) ([1]; 120 g/ha): 10; weed control effect, Setaria viridis (level) ([1]; 120 g/ha): 5 (Level 5: above 50% growth inhibition rate); effect on crop, corn (level) ([2]; 120 g/ha): 0; effect on crop, rice (level) ([2]; 120 g/ha): 1 (Level 1: above 1-10% growth inhibition rate); effect on crop, wheat (level) ([2]; 120 g/ha): 0
Cc1nn(C)cc1C(=O)Oc1c(C(=O)c2ccc(S(C)(=O)=O)c(COCC(F)(F)F)c2Cl)c(C2CC2)nn1C [Compound 49] | 7 (Level 7: above 70% growth inhibition rate) | 7 (Level 7: above 70% growth inhibition rate) | 7 (Level 7: above 70% growth inhibition rate) | 10 | 10 | 9 (Level 9: above 90% growth inhibition rate) | 0 | 3 (Level 3: above 20% growth inhibition rate) | 0 | 
CCCCOCc1c(S(C)(=O)=O)ccc(C(=O)c2c(C3CC3)nn(C)c2OC(=O)c2cnn(C)c2)c1Cl [Compound 75] | 5 (Level 5: above 50% growth inhibition rate) | 6 (Level 6: above 60% growth inhibition rate) | 9 (Level 9: above 90% growth inhibition rate) | 10 | 10 | 7 (Level 7: above 70% growth inhibition rate) | 0 | 3 (Level 3: above 20% growth inhibition rate) | 0 | 
Cc1cnn(Cc2c(S(C)(=O)=O)ccc(C(=O)c3cnn(C)c3OC(=O)c3cnn(C)c3)c2Cl)c1 [Compound 17] |  |  |  |  |  |  |  |  |  | weed control effect, Abutilon theophrasti (level) ([1]; 120 g/ha): 6 (Level 6: above 60% growth inhibition rate); weed control effect, Bidens pilosa (level) ([1]; 120 g/ha): 6 (Level 6: above 60% growth inhibition rate); weed control effect, Digitaria sanguinalis (level) ([1]; 120 g/ha): 0; weed control effect, Echinochloa crus-galli (level) ([1]; 120 g/ha): 10; weed control effect, Rorippa indica (level) ([1]; 120 g/ha): 4 (Level 4: above 30% growth inhibition rate); weed control effect, Setaria viridis (level) ([1]; 120 g/ha): 1 (Level 1: above 1-10% growth inhibition rate); effect on crop, corn (level) ([2]; 120 g/ha): 0; effect on crop, rice (level) ([2]; 120 g/ha): 0; effect on crop, wheat (level) ([2]; 120 g/ha): 0
CCOc1c(C(=O)Oc2c(C(=O)c3ccc(S(C)(=O)=O)c(COC)c3Cl)c(C)nn2CC)cnn1C [Compound 92] | 5 (Level 5: above 50% growth inhibition rate) | 7 (Level 7: above 70% growth inhibition rate) | 8 (Level 8: above 80% growth inhibition rate) | 10 | 10 | 10 | 1 (Level 1: above 1-10% growth inhibition rate) | 3 (Level 3: above 20% growth inhibition rate) | 0 | 
